In US8833363B2, “Ejection liquid, ejection method, method for forming liquid droplets, liquid ejection cartridge and ejection apparatus” (Canon Kabushiki Kaisha, priority 2004, dated 2014):

Tested on: Wister rats
Test: Confirmation of pharmacological activity: blood glucose level of rats after subcutaneous injection
Format: in vivo, rat
Conditions: 1.6 U/kg, 15, 30, 60 and 120 minutes after injection
Procedure: After anesthetic, Nembutal, was injected to Wister rats (male, 8 week-old, weight: about 250 g) fasted for one day, blood was taken from the tail vein. This is used as a base (control). […] The resultant liquid droplets were collected and subcutaneously injected into the rats in a dose of 1.6 U/kg. Blood was taken from the tail vein 15, 30, 60 and 120 minutes after the injection. The blood samples thus taken were centrifugally separated and the blood glucose levels of the obtained serums were analyzed (one group consisting of 6 rats). The same experiment was performed by using an insulin solution having no additives and not ejected in accordance with the thermal inkjet system as a Comparative Example.

Substance: insulin: insulin solution having no additives and not ejected in accordance with the thermal inkjet system (Comparative Example of Example 25)
- effect in reducing blood glucose level: swiftly decreased
